Experimental data from patent publication US20250332178A1, “METHODS OF TREATING MYCOBACTERIAL INFECTIONS USING TETRACYCLINE COMPOUNDS” (priority 2018, published 2025).
In brackets after ≈: the same amount, converted by molar mass. Read-outs that look alike come from different tables or passages of the source.

What was measured:
M. smegmatis group = test: MIC (CLSI broth dilution), RGM isolates; assay type: cell-based; settings: Mycolicibacterium smegmatis, read-out: MIC
[1] = system: rapid-growing mycobacteria (RGM) isolates; test: MIC (CLSI broth dilution), all RGM isolates; assay type: cell-based, nontuberculous mycobacteria; settings: all 50 RGM isolates
M. abscessus complex = test: MIC (CLSI broth dilution), RGM isolates; assay type: cell-based; settings: Mycobacteroides abscessus, read-out: MIC
M. chelonae = test: MIC (CLSI broth dilution), RGM isolates; assay type: cell-based; settings: Mycobacteroides chelonae, read-out: MIC
M. simiae = test: MIC (CLSI broth dilution), slow-growing NTM isolates; assay type: cell-based; settings: read-out: MIC
M. arupense = test: as above; assay type: cell-based; settings: isolate 11, Other; read-out: MIC
M. mucogenium group = test: MIC (CLSI broth dilution), RGM isolates; assay type: cell-based; settings: read-out: MIC
M. fortuitum group = test: MIC (CLSI broth dilution), RGM isolates; assay type: cell-based; settings: Mycolicibacterium fortuitum, read-out: MIC
M. immunogenum group = test: MIC (CLSI broth dilution), RGM isolates; assay type: cell-based; settings: M. immunogenum, read-out: MIC
M. abscessus = settings: strains of M. abscessus; Wallace et al.; cited from earlier work

Q: For `CN(C)c1ccc(O)c2c1C[C@H]1C[C@H]3[C@H](N(C)C)C(O)=C(C(N)=O)C(=O)[C@@]3(O)C(O)=C1C2=O` [minocycline], which MIC (M. smegmatis group; isolate 49, M. smegmatis group, M. goodii) is on record?
A: ≤ 0.5 µg/mL

Q: What about the MIC (M. smegmatis group; isolate 50, M. smegmatis group, M. wolinskyi) of the same compound?
A: ≤ 0.5 µg/mL

Q: And the MIC50 ([1]; read-out: MIC50)?
A: 8 µg/mL (≈ 17.5 µM)

Q: And the MIC90 ([1]; read-out: MIC90)?
A: > 8 µg/mL

Q: And the MIC (M. abscessus complex; isolate 1, M. abscessus complex, erm gene type MAB30)?
A: > 8 µg/mL

Q: And the MIC (M. abscessus complex; isolate 2, M. abscessus complex, erm gene type MAB30)?
A: 8 µg/mL (≈ 17.5 µM)

Q: And the MIC (M. abscessus complex; isolate 3, M. abscessus complex, erm gene type MAB30)?
A: > 8 µg/mL

Q: And the MIC (M. abscessus complex; isolate 4, M. abscessus complex, erm gene type massiliense)?
A: 4 µg/mL (≈ 8.74 µM)

Q: And the MIC (M. abscessus complex; isolate 5, M. abscessus complex, erm gene type massiliense/subsp. abs hybrid)?
A: > 8 µg/mL

Q: What about the MIC (M. abscessus complex; isolate 6, M. abscessus complex, erm gene type Type 1 abscessus) of the same compound?
A: > 8 µg/mL

Q: What about the MIC (M. abscessus complex; isolate 7, M. abscessus complex, erm gene type Type 1 abscessus) of the same compound?
A: 8 µg/mL (≈ 17.5 µM)

Q: What about the MIC (M. abscessus complex; isolate 8, M. abscessus complex, erm gene type Type 1 abscessus) of the same compound?
A: > 8 µg/mL

Q: And the MIC (M. abscessus complex; isolate 9, M. abscessus complex, erm gene type Type 1 abscessus)?
A: > 8 µg/mL

Q: And the MIC (M. abscessus complex; isolate 10, M. abscessus complex, erm gene type Type 1 abscessus)?
A: > 8 µg/mL

Q: What about the MIC (M. abscessus complex; isolate 11, M. abscessus complex, erm gene type Type 6 abscessus) of the same compound?
A: 4 µg/mL (≈ 8.74 µM)

Q: What about the MIC (M. abscessus complex; isolate 12, M. abscessus complex, erm gene type Type 6 abscessus) of the same compound?
A: > 8 µg/mL

Q: What about the MIC (M. abscessus complex; isolate 13, M. abscessus complex, erm gene type Type 6 abscessus) of the same compound?
A: > 8 µg/mL

Q: What about the MIC (M. abscessus complex; isolate 14, M. abscessus complex, erm gene type Type 6 abscessus) of the same compound?
A: 4 µg/mL (≈ 8.74 µM)

Q: And the MIC (M. abscessus complex; isolate 15, M. abscessus complex, erm gene type Type 7 abscessus)?
A: 8 µg/mL (≈ 17.5 µM)

Q: What about the MIC (M. abscessus complex; isolate 16, M. abscessus complex, erm gene type Type 7 abscessus) of the same compound?
A: > 8 µg/mL

Q: And the MIC (M. abscessus complex; isolate 17, M. abscessus complex, erm gene type Type 8 abscessus)?
A: 4 µg/mL (≈ 8.74 µM)

Q: And the MIC (M. chelonae; isolate 18, M. chelonae)?
A: > 8 µg/mL

Q: What about the MIC (M. chelonae; isolate 19, M. chelonae) of the same compound?
A: > 8 µg/mL

Q: What about the MIC (M. chelonae; isolate 20, M. chelonae) of the same compound?
A: > 8 µg/mL

Q: And the MIC (M. chelonae; isolate 21, M. chelonae)?
A: > 8 µg/mL

Q: What about the MIC (M. chelonae; isolate 22, M. chelonae) of the same compound?
A: > 8 µg/mL

Q: What about the MIC (M. simiae; isolate 13, Other) of the same compound?
A: 4 µg/mL (≈ 8.74 µM)

Q: What about the MIC (M. simiae; isolate 14, Other) of the same compound?
A: > 8 µg/mL

Q: What about the MIC (M. simiae; isolate 15, Other) of the same compound?
A: > 8 µg/mL

Q: And the MIC (M. arupense)?
A: 8 µg/mL (≈ 17.5 µM)

Q: And the MIC (M. mucogenium group; isolate 39, M. mucogenicum group, M. mucogenicum)?
A: ≤ 0.5 µg/mL

Q: And the MIC (M. mucogenium group; isolate 40, M. mucogenicum group, M. mucogenicum)?
A: ≤ 1 µg/mL

Q: What about the MIC (M. mucogenium group; isolate 41, M. mucogenicum group, M. mucogenicum) of the same compound?
A: ≤ 0.5 µg/mL

Q: And the MIC (M. mucogenium group; isolate 42, M. mucogenicum group, M. mucogenicum)?
A: ≤ 0.5 µg/mL

Q: What about the MIC (M. mucogenium group; isolate 43, M. mucogenicum group, M. phocaicum) of the same compound?
A: ≤ 0.5 µg/mL

Q: And the MIC (M. mucogenium group; isolate 44, M. mucogenicum group, M. phocaicum)?
A: > 8 µg/mL

Q: And the MIC (M. mucogenium group; isolate 45, M. mucogenicum group, M. phocaicum)?
A: > 8 µg/mL

Q: What about the MIC (M. mucogenium group; isolate 46, M. mucogenicum group, M. phocaicum) of the same compound?
A: 8 µg/mL (≈ 17.5 µM)

Q: And the MIC (M. mucogenium group; isolate 47, M. mucogenicum group, M. phocaicum)?
A: ≤ 0.5 µg/mL

Q: And the MIC (M. mucogenium group; isolate 48, M. mucogenicum group, M. phocaicum)?
A: 2 µg/mL (≈ 4.37 µM)

Q: What about the MIC (M. fortuitum group; isolate 23, M. fortuitum group, M. fortuitum) of the same compound?
A: ≤ 0.5 µg/mL

Q: What about the MIC (M. fortuitum group; isolate 24, M. fortuitum group, M. fortuitum) of the same compound?
A: ≤ 0.5 µg/mL

Q: What about the MIC (M. fortuitum group; isolate 25, M. fortuitum group, M. fortuitum) of the same compound?
A: > 8 µg/mL

Q: And the MIC (M. fortuitum group; isolate 26, M. fortuitum group, M. porcinum)?
A: 1 µg/mL (≈ 2.19 µM)

Q: What about the MIC (M. fortuitum group; isolate 27, M. fortuitum group, M. porcinum) of the same compound?
A: 4 µg/mL (≈ 8.74 µM)

Q: What about the MIC (M. fortuitum group; isolate 28, M. fortuitum group, M. porcinum/M. boenickei) of the same compound?
A: 1 µg/mL (≈ 2.19 µM)

Q: And the MIC (M. fortuitum group; isolate 29, M. fortuitum group, M. porcinum/M. boenickei)?
A: 4 µg/mL (≈ 8.74 µM)

Q: What about the MIC (M. fortuitum group; isolate 30, M. fortuitum group, M. porcinum/M. boenickei) of the same compound?
A: 8 µg/mL (≈ 17.5 µM)

Q: What about the MIC (M. fortuitum group; isolate 31, M. fortuitum group, M. senegalense) of the same compound?
A: ≤ 0.5 µg/mL

Q: And the MIC (M. fortuitum group; isolate 32, M. fortuitum group, M. senegalense)?
A: ≤ 0.5 µg/mL

Q: And the MIC (M. fortuitum group; isolate 33, M. fortuitum group, M. senegalense)?
A: ≤ 0.5 µg/mL

Q: What about the MIC (M. fortuitum group; isolate 34, M. fortuitum group, M. senegalense) of the same compound?
A: ≤ 0.5 µg/mL

Q: What about the MIC (M. immunogenum group; isolate 35, M. immunogenum group) of the same compound?
A: > 8 µg/mL

Q: And the MIC (M. immunogenum group; isolate 36, M. immunogenum group)?
A: ≤ 0.5 µg/mL

Q: What about the MIC (M. immunogenum group; isolate 37, M. immunogenum group) of the same compound?
A: > 8 µg/mL

Q: And the MIC (M. immunogenum group; isolate 38, M. immunogenum group)?
A: > 8 µg/mL

Q: With `CN(C)[C@@H]1C(=O)C(C(N)=O)=C(O)[C@@]2(O)C(=O)C3=C(O)c4c(O)cccc4[C@@](C)(O)[C@H]3C[C@@H]12` [tetracycline] as the compound, how does the “in vitro activity (in words)” value (M. abscessus) read?
A: very low activity
